The test deals with 5-hydroxytryptamine receptor 4 (Rattus norvegicus, UniProt Q62758). Put plainly: Agonist activity against serotonin 5-HT4 receptor in rat tunica muscularis mucosae assay.

The EC50 is the concentration giving half of the maximal effect. Read a high EC50 as weaker potency.

Sequence of 5-hydroxytryptamine receptor 4 (Q62758 whole entry): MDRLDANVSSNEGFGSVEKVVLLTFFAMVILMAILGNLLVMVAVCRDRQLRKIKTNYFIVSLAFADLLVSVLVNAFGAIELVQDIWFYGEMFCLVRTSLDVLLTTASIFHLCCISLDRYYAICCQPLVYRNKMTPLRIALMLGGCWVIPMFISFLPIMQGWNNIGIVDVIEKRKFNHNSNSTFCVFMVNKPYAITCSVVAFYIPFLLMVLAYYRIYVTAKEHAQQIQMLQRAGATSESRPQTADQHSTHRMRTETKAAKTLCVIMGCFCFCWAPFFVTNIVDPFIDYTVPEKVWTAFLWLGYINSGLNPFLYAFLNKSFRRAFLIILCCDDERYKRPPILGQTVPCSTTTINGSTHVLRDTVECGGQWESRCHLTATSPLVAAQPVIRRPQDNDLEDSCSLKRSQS

In turn, `COc1cc(N)c(Cl)cc1C(=O)NC1C2CC3CC1CN3C2` (configuration not stated) [4-Amino-N-(3-aza-tricyclo[3.3.1.0*3,7*]non-9-yl)-5-chloro-2-methoxy-benzamide] came in with an EC50 of 382 nM.
Regarding `COc1cc(N)c(Cl)cc1C(=O)NCC1C2CC3CC1CN3C2` (configuration not stated) [4-Amino-N-(3-aza-tricyclo[3.3.1.0*3,7*]non-9-ylmethyl)-5-chloro-2-methoxy-benzamide], the EC50 turned out to be 660 nM. Compared with the last molecule, the EC50 is about 1.7-fold higher.

The values are drawn from BindingDB's records for doi:10.1016/S0960-894X(97)00408-3 (1997).
